Article PMC7448272, “Acetylation of Surface Carbohydrates in Bacterial Pathogens Requires Coordinated Action of a Two-Domain Membrane-Bound Acyltransferase” (mBio, 2020)

What was measured:
Assay in all cases: acetylesterase assay, absorbance at […] nm, plate reader
Format in all cases: biochemical
[1] = biological target: T1, OafA-STM^C-long (Salmonella enterica, UniProt Q8ZNJ3); conditions: 10 uM enzyme, 0.5 mM substrate final, 37 C; also acetyl donor for LPS acetylation
T1 construct: periplasmic C-terminal SGNH domain with full SGNHext, residues 366-609; N-terminal His-MBP tag (3C-cleavable) removed; expressed in E. coli Origami

[2] = biological target: T2, OafB-SPA^C-short (Salmonella enterica, UniProt A0A0H2WM30); conditions: 40 uM enzyme (methods print OafB-STM^C-term), 0.5 mM substrate final, 37 C; also acetyl donor for LPS acetylation
T2 construct: gene SPA0467; periplasmic C-terminal SGNH domain with shortened SGNHext, residues 399-640; codon-optimised gene; N-terminal His-MBP tag (3C-cleavable) removed; expressed in E. coli Origami

[3] = biological target: T3, OafA-STM^C-short (Salmonella enterica, UniProt Q8ZNJ3); conditions: 10 uM enzyme, 0.5 mM substrate final, 37 C; also acetyl donor for LPS acetylation
T3 construct: periplasmic C-terminal SGNH domain with shortened SGNHext, residues 379-609; N-terminal His-MBP tag (3C-cleavable) removed; expressed in E. coli Origami

[4] = biological target: T4, OafB-SPA^C-long (Salmonella enterica, UniProt A0A0H2WM30); conditions: 40 uM enzyme (methods print OafB-STM^C-term), 0.5 mM substrate final, 37 C
T4 construct: gene SPA0467; periplasmic C-terminal SGNH domain with full SGNHext, residues 377-640; codon-optimised gene; N-terminal His-MBP tag (3C-cleavable) removed; expressed in E. coli Origami
T4 sequence (A0A0H2WM30 entry or part of it): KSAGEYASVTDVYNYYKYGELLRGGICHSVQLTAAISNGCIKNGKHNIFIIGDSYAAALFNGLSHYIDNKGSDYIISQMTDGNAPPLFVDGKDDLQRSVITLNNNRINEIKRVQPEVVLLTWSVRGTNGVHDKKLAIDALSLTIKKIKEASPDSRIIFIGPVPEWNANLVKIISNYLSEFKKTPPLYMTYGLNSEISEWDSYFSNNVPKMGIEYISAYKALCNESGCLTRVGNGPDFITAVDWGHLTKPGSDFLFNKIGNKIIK

T1 sequence (Q8ZNJ3 entry or part of it): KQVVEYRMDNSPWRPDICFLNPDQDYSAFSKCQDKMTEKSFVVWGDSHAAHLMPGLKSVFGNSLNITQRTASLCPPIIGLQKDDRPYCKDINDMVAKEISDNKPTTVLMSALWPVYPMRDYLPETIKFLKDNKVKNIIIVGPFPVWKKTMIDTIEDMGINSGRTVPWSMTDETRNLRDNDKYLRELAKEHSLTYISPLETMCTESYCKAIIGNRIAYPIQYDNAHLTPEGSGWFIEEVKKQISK
T2 sequence (A0A0H2WM30 entry or part of it): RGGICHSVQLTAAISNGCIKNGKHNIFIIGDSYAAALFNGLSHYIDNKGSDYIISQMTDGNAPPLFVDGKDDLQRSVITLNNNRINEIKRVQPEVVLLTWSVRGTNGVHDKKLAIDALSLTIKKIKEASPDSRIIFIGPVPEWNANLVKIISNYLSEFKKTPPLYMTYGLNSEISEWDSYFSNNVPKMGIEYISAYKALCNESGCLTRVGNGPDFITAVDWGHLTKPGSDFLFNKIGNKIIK
T3 sequence (Q8ZNJ3 entry or part of it): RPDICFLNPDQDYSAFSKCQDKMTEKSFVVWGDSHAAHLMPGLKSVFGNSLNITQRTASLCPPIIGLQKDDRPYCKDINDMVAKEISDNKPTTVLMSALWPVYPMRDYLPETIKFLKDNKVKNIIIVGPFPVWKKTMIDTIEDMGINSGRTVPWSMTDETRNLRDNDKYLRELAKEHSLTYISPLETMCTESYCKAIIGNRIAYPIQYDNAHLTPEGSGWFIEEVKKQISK

SMILES: CC(=O)Oc1ccc([N+](=O)[O-])cc1 [p-nitrophenyl acetate]
- acetylesterase assay, absorbance at 405 nm, plate reader [1]: all constructs via their ability to hydrolyze the ester substrate p-nitrophenyl acetate (pNP-Ac)
- acetylesterase assay, absorbance at 405 nm, plate reader [2]: all constructs via their ability to hydrolyze the ester substrate p-nitrophenyl acetate (pNP-Ac)
- acetylesterase assay, absorbance at 405 nm, plate reader [3]: all constructs via their ability to hydrolyze the ester substrate p-nitrophenyl acetate (pNP-Ac)
- acetylesterase assay, absorbance at 405 nm, plate reader [4]: all constructs via their ability to hydrolyze the ester substrate p-nitrophenyl acetate (pNP-Ac)
